Measurements as given in paper PMC12040169 (PLOS Biology, 2025).

Test: in vitro
Conditions: human, hela cells, % viability

| SMILES | viability at 28.5 h, 10 µM |
| --- | --- |
| Cc1c(NC(=O)CCCC(=O)O)c(=O)n(-c2ccccc2)n1C [CBK286532] | 93.1% |
| O=C(O)CCC(=O)N1CCN(C(=O)c2ccco2)CC1 [CBK286533] | 102% |
| O=C(O)CCCCCN1C(=O)C2CC=CCC2C1=O (stereo not shown) [CBK286534] | 82.5% |
| O=C(O)C1C2C=CC(C2)C1C(=O)N1CCc2ccccc21 (stereo not shown) [CBK286537] | 85.2% |
| O=C(O)C1=CC(c2ccc(O)cc2)n2ncnc2N1 (stereo not shown) [CBK286545] | 88.7% |
| CC(=O)N1N=C(c2ccc3c(c2)OCO3)CC1c1ccc(C(=O)O)cc1 (stereo not shown) [CBK286547] | 95.4% |
| COc1cccc(CN2CCC(C(=O)O)CC2)c1OC [CBK286548] | 90.5% |
| CC(=O)N(CN1C(=O)CCC1=O)C(CC(C)C)C(=O)O (stereo not shown) [CBK286553] | 87.7% |
| O=C(O)C1CCN(C(=O)CSc2nc3ccccc3o2)CC1 [CBK286557] | 91.6% |
| O=C(O)c1cc(-c2ccccc2)oc1CSCCO [CBK286559] | 92.3% |
| Cc1cc(C(=O)NC(Cc2c[nH]c3ccccc23)C(=O)O)c(C)o1 (stereo not shown) [CBK286560] | 86.5% |
| COc1cc(NS(=O)(=O)c2ccccc2)c(Cl)cc1C(=O)O [CBK286564] | 98% |
| Nc1cc(-c2ccccc2)nn1-c1ccc(C(=O)O)cc1 [CBK286565] | 84.9% |
| CC1C(c2ccccc2)CCC(C(=O)O)C1C(=O)O (stereo not shown) [CBK286566] | 90.5% |
| CC1CCN(C(=O)C2CC(=O)N(c3ccc(C(=O)O)cc3)C2)CC1 (stereo not shown) [CBK286568] | 87.6% |
| CCOC(=O)N1CCC(NC(=O)CCC(=O)O)CC1 [CBK286569] | 91.5% |
| O=C(COc1ccc2ccccc2c1)N[C@@H](C(=O)O)c1ccc(O)cc1 [CBK286571] | 88.8% |
| Cc1cc(C(=O)NCCC(=O)O)c2ccccc2n1 [CBK286573] | 86% |
| Cn1c(=O)cc(NCCCCCC(=O)O)[nH]c1=O [CBK286574] | 88.3% |

| SMILES | viability at 28.5 h, 10 µM |
| --- | --- |
| O=C(O)C(Cc1ccccc1)C(C(=O)O)c1ccccc1 (stereo not shown) [CBK286578] | 94.3% |
| C[C@H](NC(=O)N1CCN(C(=O)c2c[nH]c3ccccc23)CC1)C(=O)O [CBK286581] | 84.5% |
| O=C(O)CN(CC(=O)Nc1ccc(Cl)cc1)Cc1ccccc1 [CBK286585] | 85.5% |
| O=C(O)c1ccccc1C1Nc2ccccc2S(=O)(=O)N1Cc1ccccc1 (stereo not shown) [CBK286587] | 107% |
| C=CCC(NCc1ccccc1)c1ccc(C(=O)O)o1 (stereo not shown) [CBK286591] | 84.1% |
| CC(C)C(C(=O)O)N(C)C(=O)OCc1ccccc1 (stereo not shown) [CBK286593] | 84.8% |
| CC(C)(C)OC(=O)NC1CCN(C(=O)CCC(=O)O)CC1 [CBK286604] | 95.9% |
| O=C(CSc1ccccn1)Nc1ccc(C(=O)O)cc1 [CBK286605] | 87.2% |
| COc1ccc(CCN2C(=O)CC(C(=O)O)S/C2=N\c2ccccc2)cc1 (stereo not shown) [CBK286606] | 90.6% |
| CC(C)C(NC(=O)C1CCC(C(C)(C)C)CC1)C(=O)O (stereo not shown) [CBK286610] | 95.5% |
| COc1cccc(N2CC(C(=O)Nc3cccc(C(=O)O)c3)CC2=O)c1 (stereo not shown) [CBK286612] | 99.7% |
| N#Cc1cccnc1SC(C(=O)O)c1ccccc1 (stereo not shown) [CBK286614] | 106% |
| O=C(O)C1CCN(C(=O)CCn2ccc3cc(Br)ccc32)CC1 [CBK286617] | 105% |
| COc1ccc(-c2csc(NC(=O)C(C)C)c2C(=O)O)cc1 [CBK286622] | 83.1% |
| O=C(O)Cn1cc(C(C(=O)O)N2CCN(c3ccccc3)CC2)c2ccccc21 (stereo not shown) [CBK286625] | 78.1% |
| O=C(O)C1CCC(CNc2ccc([N+](=O)[O-])cn2)CC1 (stereo not shown) [CBK286626] | 81.2% |
| Cn1cc(C(C(=O)O)N2CCN(c3ccccc3)CC2)c2cc(C(=O)O)ccc21 (stereo not shown) [CBK286627] | 115% |
| O=C(O)c1ccc(OCCN2C3=NCCN3c3ccccc32)cc1 [CBK286629] | 93% |
